Source: ChEMBL document CHEMBL3885861, “Open TG-GATES”

Species on record: Rattus norvegicus
Test: Open TG-GATES - Regimen: Daily Repeat
Type: toxicity, organism-based, Sprague-Dawley
Parameters: regimen Daily Repeat, gender Male, age 6 weeks
Details: in vivo, po, 0 mg/kg, route gavage, dose level Control; for APTT / Bas / Eos / Fbg / Hb / Ht / Lym / MCH / MCHC / MCV / Mono / Neu / PT / Plat / RBC / Ret / WBC: tissue Blood; for KIDNEY_L / KIDNEY_R / KIDNEY_TOTAL: tissue Kidney; for LIVER: tissue Liver; for A/G / ALP / ALT / AST / BUN / CRE / Ca / Cl / DBIL / GLC / IP / K / LDH / Na / PL / RALB / TBIL / TC / TG / TP / gamma-GTP: tissue Plasma

CC[C@H]1[C@@H]2C[C@H]3[C@@H]4N(C)c5ccccc5[C@]45C[C@@H]([C@@H]2[C@H]5O)N3[C@@H]1O [AJMALINE]
TERMINAL_BW (72 h, time 3 day): 211 g | APTT (72 h, time 3 day): 16.4 s | Bas (72 h, time 3 day): 0% | Eos (72 h, time 3 day): 1% | Fbg (72 h, time 3 day): 218.4 mg/dL | Hb (72 h, time 3 day): 13 g/dL | Ht (72 h, time 3 day): 40.1% | Lym (72 h, time 3 day): 75.8% | MCH (72 h, time 3 day): 21.1 pg | MCHC (72 h, time 3 day): 32.4% | MCV (72 h, time 3 day): 65 fL | Mono (72 h, time 3 day): 10.4% | Neu (72 h, time 3 day): 13% | PT (72 h, time 3 day): 11.6 s | Plat (72 h, time 3 day): 115.1 x10_4/uL | RBC (72 h, time 3 day): 617.4 x10_4/ul | Ret (72 h, time 3 day): 8% | WBC (72 h, time 3 day): 104.3 x10_2/uL | KIDNEY_L (72 h, time 3 day): 0.9 g | KIDNEY_R (72 h, time 3 day): 1 g | KIDNEY_TOTAL (72 h, time 3 day): 1.9 g | LIVER (72 h, time 3 day): 10.3 g | A/G (72 h, time 3 day): 2.2 | ALP (72 h, time 3 day): 1003.6 IU/L | ALT (72 h, time 3 day): 37 IU/L | AST (72 h, time 3 day): 63.8 IU/L | BUN (72 h, time 3 day): 19.4 mg/dL | CRE (72 h, time 3 day): 0.5 mg/dL | Ca (72 h, time 3 day): 11.1 mg/dL | Cl (72 h, time 3 day): 102.8 meq/L | DBIL (72 h, time 3 day): 0.008 mg/dL | GLC (72 h, time 3 day): 199.8 mg/dL | IP (72 h, time 3 day): 7.4 mg/dL | K (72 h, time 3 day): 4.5 meq/L | LDH (72 h, time 3 day): 87.6 IU/L | Na (72 h, time 3 day): 140 meq/L | PL (72 h, time 3 day): 152.6 mg/dL | RALB (72 h, time 3 day): 3.9 g/dL | TBIL (72 h, time 3 day): 0.3 mg/dL | TC (72 h, time 3 day): 79.4 mg/dL | TG (72 h, time 3 day): 101.4 mg/dL | TP (72 h, time 3 day): 5.8 g/dL | gamma-GTP (72 h, time 3 day): 1.8 IU/L | TERMINAL_BW ([…], time 7 day): 249.2 g | TERMINAL_BW ([…], time 14 day): 302.2 g | TERMINAL_BW ([…], time 28 day): 382 g | APTT ([…], time 7 day): 16.1 s | Bas ([…], time 7 day): 0% | Eos ([…], time 7 day): 1% | Fbg ([…], time 7 day): 220.4 mg/dL | Hb ([…], time 7 day): 13 g/dL | Ht ([…], time 7 day): 39.8% | Lym ([…], time 7 day): 82.2% | MCH ([…], time 7 day): 20.6 pg | MCHC ([…], time 7 day): 32.6% | MCV ([…], time 7 day): 63.3 fL | Mono ([…], time 7 day): 5% | Neu ([…], time 7 day): 12.2% | PT ([…], time 7 day): 11.2 s | Plat ([…], time 7 day): 125.7 x10_4/uL | RBC ([…], time 7 day): 629.6 x10_4/ul | Ret ([…], time 7 day): 7% | WBC ([…], time 7 day): 107.8 x10_2/uL | APTT ([…], time 14 day): 17.8 s | Bas ([…], time 14 day): 0% | Eos ([…], time 14 day): 0.8% | Fbg ([…], time 14 day): 211.6 mg/dL | Hb ([…], time 14 day): 13.6 g/dL | Ht ([…], time 14 day): 41.6% | Lym ([…], time 14 day): 84.6% | MCH ([…], time 14 day): 20.6 pg | MCHC ([…], time 14 day): 32.9% | MCV ([…], time 14 day): 62.5 fL | Mono ([…], time 14 day): 4% | Neu ([…], time 14 day): 11% | PT ([…], time 14 day): 11.4 s | Plat ([…], time 14 day): 121.9 x10_4/uL | RBC ([…], time 14 day): 664.2 x10_4/ul | Ret ([…], time 14 day): 3.8% | WBC ([…], time 14 day): 121.7 x10_2/uL | APTT ([…], time 28 day): 17.6 s | Bas ([…], time 28 day): 0% | Eos ([…], time 28 day): 1.2% | Fbg ([…], time 28 day): 226.2 mg/dL | Hb ([…], time 28 day): 15.2 g/dL | Ht ([…], time 28 day): 45.3% | Lym ([…], time 28 day): 83.8% | MCH ([…], time 28 day): 19.1 pg | MCHC ([…], time 28 day): 33.5% | MCV ([…], time 28 day): 57 fL | Mono ([…], time 28 day): 5.6% | Neu ([…], time 28 day): 9.6% | PT ([…], time 28 day): 11.4 s | Plat ([…], time 28 day): 125.9 x10_4/uL | RBC ([…], time 28 day): 794.6 x10_4/ul | Ret ([…], time 28 day): 2% | WBC ([…], time 28 day): 105.2 x10_2/uL | KIDNEY_L ([…], time 7 day): 1 g | KIDNEY_R ([…], time 7 day): 1.1 g | KIDNEY_TOTAL ([…], time 7 day): 2.1 g | KIDNEY_L ([…], time 14 day): 1.2 g | KIDNEY_R ([…], time 14 day): 1.3 g | KIDNEY_TOTAL ([…], time 14 day): 2.5 g | KIDNEY_L ([…], time 28 day): 1.4 g | KIDNEY_R ([…], time 28 day): 1.4 g | KIDNEY_TOTAL ([…], time 28 day): 2.9 g | LIVER ([…], time 7 day): 12.3 g | LIVER ([…], time 14 day): 13.9 g | LIVER ([…], time 28 day): 16.5 g | A/G ([…], time 7 day): 1.9 | ALP ([…], time 7 day): 1031.8 IU/L | ALT ([…], time 7 day): 37.4 IU/L | AST ([…], time 7 day): 67 IU/L | BUN ([…], time 7 day): 18.4 mg/dL | CRE ([…], time 7 day): 0.5 mg/dL | Ca ([…], time 7 day): 11.1 mg/dL | Cl ([…], time 7 day): 104.2 meq/L | DBIL ([…], time 7 day): 0.004 mg/dL | GLC ([…], time 7 day): 206.8 mg/dL | IP ([…], time 7 day): 7.9 mg/dL | K ([…], time 7 day): 4.4 meq/L | LDH ([…], time 7 day): 80.4 IU/L | Na ([…], time 7 day): 142.4 meq/L | PL ([…], time 7 day): 154 mg/dL | RALB ([…], time 7 day): 3.7 g/dL | TBIL ([…], time 7 day): 0.3 mg/dL | TC ([…], time 7 day): 79.8 mg/dL | TG ([…], time 7 day): 126.4 mg/dL | TP ([…], time 7 day): 5.7 g/dL | gamma-GTP ([…], time 7 day): 1.2 IU/L | A/G ([…], time 14 day): 1.9 | ALP ([…], time 14 day): 756.6 IU/L | ALT ([…], time 14 day): 31 IU/L | AST ([…], time 14 day): 61.4 IU/L | BUN ([…], time 14 day): 20.6 mg/dL | CRE ([…], time 14 day): 0.5 mg/dL | Ca ([…], time 14 day): 10.9 mg/dL | Cl ([…], time 14 day): 104.2 meq/L | DBIL ([…], time 14 day): 0.008 mg/dL | GLC ([…], time 14 day): 206 mg/dL | IP ([…], time 14 day): 7.2 mg/dL | K ([…], time 14 day): 4.9 meq/L | LDH ([…], time 14 day): 90.6 IU/L | Na ([…], time 14 day): 141.6 meq/L | PL ([…], time 14 day): 148.4 mg/dL | RALB ([…], time 14 day): 3.8 g/dL | TBIL ([…], time 14 day): 0.3 mg/dL | TC ([…], time 14 day): 69.4 mg/dL | TG ([…], time 14 day): 126 mg/dL | TP ([…], time 14 day): 5.8 g/dL | gamma-GTP ([…], time 14 day): 1.4 IU/L | A/G ([…], time 28 day): 1.9 | ALP ([…], time 28 day): 557 IU/L | ALT ([…], time 28 day): 29.8 IU/L | AST ([…], time 28 day): 57.6 IU/L | BUN ([…], time 28 day): 19.4 mg/dL | CRE ([…], time 28 day): 0.6 mg/dL | Ca ([…], time 28 day): 10.3 mg/dL | Cl ([…], time 28 day): 105.2 meq/L | DBIL ([…], time 28 day): 0.016 mg/dL | GLC ([…], time 28 day): 195 mg/dL | IP ([…], time 28 day): 6.3 mg/dL | K ([…], time 28 day): 4.7 meq/L | LDH ([…], time 28 day): 78.2 IU/L | Na ([…], time 28 day): 142.6 meq/L | PL ([…], time 28 day): 139 mg/dL | RALB ([…], time 28 day): 4 g/dL | TBIL ([…], time 28 day): 0.3 mg/dL | TC ([…], time 28 day): 62.6 mg/dL | TG ([…], time 28 day): 136.4 mg/dL | TP ([…], time 28 day): 6.2 g/dL | gamma-GTP ([…], time 28 day): 1.6 IU/L
